Data taken from ChEMBL document CHEMBL1949526, “Cyclic hydroxyamidines as amide isosteres: discovery of oxadiazolines and oxadiazines as potent and highly efficacious γ-secretase modulators in vivo” (J Med Chem, 2012).
pIC50: −log10 of the molar value.

Assays:
[1] = system: Rattus norvegicus; experiment: Antialzheimer activity in CD rat assessed as reduction in total amyloid beta level in CSF at 10 mg/kg, po after 3 hrs by alphaLISA analysis; format: functional; design: scale not given: the % may be the effect or the level left
[2] = Clearance in rat at 3 mg/kg, iv; format: ADME, organism-based; design: dose 3 mg/kg, route intravenous; conditions: in vivo
[3] = system: Rattus norvegicus; experiment: Antialzheimer activity in CD rat assessed as reduction in amyloid beta42 level in plasma administered as po for 6 days by alphaLISA analysis relative to total amyloid beta level; format: functional, organism-based
[4] = system: Rattus norvegicus; experiment: Antialzheimer activity in po dosed CD rat assessed as reduction in amyloid beta42 level in cortex after 3 hrs by alphaLISA analysis relative to total amyloid beta level; format: functional, organism-based
[5] = target: Gamma-secretase; experiment: Modulation of gamma-secretase-mediated cleavage of human APP Swedish and London mutation expressed in HEK293 cells assessed as inhibition of amyloid beta40 production after 5 hrs by sandwich immunoassay; format: cell-based
[6] = system: Rattus norvegicus; experiment: Antialzheimer activity in po dosed CD rat assessed as reduction in amyloid beta42 level in cortex after 3 hrs by alphaLISA analysis relative to amyloid beta40 level; format: functional, organism-based
[7] = Plasma concentration in CD rat at 10 mg/kg, po after 3 hrs; format: ADME, organism-based; design: dose 10 mg/kg, route oral
[8] = organism: Rattus norvegicus; experiment: Toxicity in rat assessed as effect on adipsin expression in jejunum at highest tolerable dose; format: organism-based; conditions: in vivo
[9] = Oral bioavailability in dog at 10 mg/kg; format: ADME, organism-based, Canis lupus familiaris; conditions: in vivo
[10] = system: Rattus norvegicus; experiment: Antialzheimer activity in CD rat assessed as reduction in amyloid beta42 level in cortex at 10 mg/kg, po after 3 hrs by alphaLISA analysis; format: functional; design: scale not given: the % may be the effect or the level left
[11] = AUC in monkey at 10 mg/kg, po; format: ADME, organism-based, Macaca mulatta; design: dose 10 mg/kg, route oral; conditions: rhesus monkey, plasma
[12] = Clearance in monkey at 3 mg/kg, iv; format: ADME, organism-based, Macaca mulatta; design: dose 3 mg/kg, route intravenous; conditions: rhesus monkey, in vivo
[13] = system: Rattus norvegicus; experiment: Antialzheimer activity in CD rat assessed as reduction in amyloid beta42 level in CSF administered as po for 6 days by alphaLISA analysis relative to total amyloid beta40 level; format: functional, organism-based
[14] = system: Rattus norvegicus; experiment: Antialzheimer activity in po dosed CD rat assessed as reduction in amyloid beta42 level in CSF after 3 hrs by alphaLISA analysis relative to amyloid beta40 level; format: functional, organism-based
[15] = system: Rattus norvegicus; experiment: Antialzheimer activity in CD rat assessed as reduction in amyloid beta40 level in plasma at 10 mg/kg, po after 3 hrs by alphaLISA analysis; format: functional; design: scale not given: the % may be the effect or the level left
[16] = Half life in dog at 3 mg/kg, iv; format: ADME, organism-based, Canis lupus familiaris; design: dose 3 mg/kg, route intravenous; conditions: in vivo
[17] = AUC in rat at 10 mg/kg, po; format: ADME, organism-based, Plasma; design: dose 10 mg/kg, route oral; conditions: plasma
[18] = system: Rattus norvegicus; experiment: Antialzheimer activity in CD rat assessed as reduction in amyloid beta42 level in CSF at 10 mg/kg, po after 3 hrs by alphaLISA analysis; format: functional; design: scale not given: the % may be the effect or the level left
[19] = Cmax in dog at 10 mg/kg, po; format: ADME, organism-based, Canis lupus familiaris; design: dose 10 mg/kg, route oral; conditions: in vivo
[20] = system: Rattus norvegicus; experiment: Antialzheimer activity in CD rat assessed as reduction in amyloid beta42 level in plasma at 10 mg/kg, po after 3 hrs by alphaLISA analysis; format: functional; design: scale not given: the % may be the effect or the level left
[21] = Ratio of drug level in brain to plasma in CD rat at 10 mg/kg, po after 3 hrs; format: ADME, organism-based; design: dose 10 mg/kg, route oral; conditions: read-out: BPR
[22] = Cmax in monkey at 10 mg/kg, po; format: ADME, organism-based, Macaca mulatta; design: dose 10 mg/kg, route oral; conditions: rhesus monkey, in vivo
[23] = Oral bioavailability in monkey at 10 mg/kg; format: ADME, organism-based, Macaca mulatta; conditions: rhesus monkey, in vivo
[24] = system: Rattus norvegicus; experiment: Antialzheimer activity in CD rat assessed as reduction in amyloid beta40 level in CSF at 10 mg/kg, po after 3 hrs by alphaLISA analysis; format: functional; design: scale not given: the % may be the effect or the level left
[25] = system: Rattus norvegicus; experiment: Antialzheimer activity in CD rat assessed as reduction in amyloid beta42 level in CSF administered as po for 6 days by alphaLISA analysis relative to total amyloid beta level; format: functional, organism-based
[26] = AUC in dog at 10 mg/kg, po; format: ADME, organism-based, Canis lupus familiaris, Plasma; design: dose 10 mg/kg, route oral; conditions: plasma
[27] = system: Rattus norvegicus; experiment: Antialzheimer activity in CD rat assessed as reduction in amyloid beta40 level in cortex at 10 mg/kg, po after 3 hrs by alphaLISA analysis; format: functional; design: scale not given: the % may be the effect or the level left
[28] = Clearance in dog at 3 mg/kg, iv; format: ADME, organism-based, Canis lupus familiaris; design: dose 3 mg/kg, route intravenous; conditions: in vivo
[29] = Half life in monkey at 3 mg/kg, iv; format: ADME, organism-based, Macaca mulatta; design: dose 3 mg/kg, route intravenous; conditions: rhesus monkey, in vivo
[30] = system: Rattus norvegicus; experiment: Antialzheimer activity in CD rat assessed as reduction in amyloid beta42 level in cortex administered as po for 6 days by alphaLISA analysis relative to total amyloid beta40 level; format: functional, organism-based
[31] = Volume of distribution at steady state in dog at 3 mg/kg, iv; format: ADME, organism-based, Canis lupus familiaris; design: dose 3 mg/kg, route intravenous; conditions: in vivo, read-out: Vdss
[32] = organism: Rattus norvegicus; experiment: Toxicity in rat assessed as decrease in body weight at highest tolerable dose; format: organism-based; conditions: in vivo
[33] = Cmax in rat at 10 mg/kg, po; format: ADME, organism-based; design: dose 10 mg/kg, route oral; conditions: in vivo
[34] = Volume of distribution at steady state in monkey at 3 mg/kg, iv; format: ADME, organism-based, Macaca mulatta; design: dose 3 mg/kg, route intravenous; conditions: rhesus monkey, in vivo, read-out: Vdss
[35] = Volume of distribution at steady state in rat at 3 mg/kg, iv; format: ADME, organism-based; design: dose 3 mg/kg, route intravenous; conditions: in vivo, read-out: Vdss
[36] = system: Rattus norvegicus; experiment: Antialzheimer activity in po dosed CD rat assessed as reduction in amyloid beta42 level in plasma after 3 hrs by alphaLISA analysis relative to total amyloid beta level; format: functional, organism-based
[37] = target: Gamma-secretase; experiment: Modulation of gamma-secretase-mediated cleavage of human APP Swedish and London mutation expressed in HEK293 cells assessed as inhibition of amyloid beta42 production after 5 hrs by sandwich immunoassay; format: cell-based
[38] = organism: Rattus norvegicus; experiment: Toxicity in rat assessed as effect on HES-1 expression in jejunum at highest tolerable dose; format: organism-based; conditions: in vivo
[39] = organism: Rattus norvegicus; experiment: Toxicity in rat assessed as production of goblet cell meta/hyperplasia in ileum at highest tolerable dose; format: organism-based; conditions: in vivo
[40] = organism: Rattus norvegicus; experiment: Toxicity in rat assessed as decrease in thymus size at highest tolerable dose; format: organism-based; conditions: in vivo
[41] = target: Gamma-secretase; experiment: Modulation of gamma-secretase-mediated cleavage of human APP Swedish and London mutation expressed in HEK293 cells assessed as reduction of total amyloid beta level after 5 hrs by sandwich immunoassay; format: cell-based
[42] = target: Gamma-secretase; experiment: Modulation of gamma-secretase-mediated notch signaling in HEK293 cells transfected with human APP Swedish and London mutation and Notch1 with truncated extracellular EGF repeat domain assessed as production of notch intracellular domain by MSD-based sandwich immunoassay; format: cell-based
[43] = Permeability from apical to basolateral side of human Caco2 cells; format: ADME, cell-based; conditions: Caco-2, read-out: permeability
[44] = system: Rattus norvegicus; experiment: Antialzheimer activity in CD rat assessed as reduction in amyloid beta42 level in cortex administered as po for 6 days by alphaLISA analysis relative to total amyloid beta level; format: functional, organism-based
[45] = system: Rattus norvegicus; experiment: Antialzheimer activity in CD rat assessed as reduction in amyloid beta42 level in plasma administered as po for 6 days by alphaLISA analysis relative to total amyloid beta40 level; format: functional, organism-based
[46] = Oral bioavailability in rat at 10 mg/kg; format: ADME, organism-based; conditions: in vivo
[47] = system: Rattus norvegicus; experiment: Antialzheimer activity in po dosed CD rat assessed as reduction in amyloid beta42 level in plasma after 3 hrs by alphaLISA analysis relative to amyloid beta40 level; format: functional, organism-based
[48] = Half life in rat at 3 mg/kg, iv; format: ADME, organism-based; design: dose 3 mg/kg, route intravenous; conditions: in vivo
[49] = system: Rattus norvegicus; experiment: Antialzheimer activity in CD rat assessed as reduction in total amyloid beta level in plasma at 10 mg/kg, po after 3 hrs by alphaLISA analysis; format: functional; design: scale not given: the % may be the effect or the level left
[50] = organism: Canis familiaris; experiment: Cardiotoxicity in dog assessed as effect on electrocardiographic QTc interval at compound concentration required for pharmacological effect; format: toxicity, organism-based, Canis lupus familiaris; conditions: in vivo
[51] = system: Rattus norvegicus; experiment: Antialzheimer activity in po dosed CD rat assessed as reduction in amyloid beta42 level in CSF after 3 hrs by alphaLISA analysis relative to total amyloid beta level; format: functional, organism-based

## COc1cc(/C=C2\CCCN3C2=NO[C@]3(CO)c2ccc(F)cc2)ccc1-n1cnc(C)c1
[1]
  Activity: 120%
[2]
  clearance: 6.1 mL/min/kg
[3]
  Activity: Dose-dependent effect
[4]
  Activity: Dose-dependent effect
[5]
  pIC50: 6.77
[6]
  Activity: Dose-dependent effect
[7]
  concentration at 3 h: 3.6 µM
[8]
  Activity: Non-toxic
[9]
  bioavailability: 38%
[10]
  Activity: 37%
[11]
  AUC: 30 µM·h
[12]
  clearance: 6 mL/min/kg
[13]
  Activity: Dose-dependent effect
[14]
  Activity: Dose-dependent effect
[15]
  Activity: 44%
[16]
  half-life: 1.4 h
[17]
  AUC: 61 µM·h
[18]
  Activity: 66%
[19]
  Cmax: 4 µM
[20]
  Activity: 41%
[21]
  Kp at 3 h: 0.15
[22]
  Cmax: 8.8 µM
[23]
  bioavailability: 48%
[24]
  Activity: 104%
[25]
  Activity: Dose-dependent effect
[26]
  AUC: 26 µM·h
[27]
  Activity: 77%
[28]
  clearance: 5 mL/min/kg
[29]
  half-life: 3 h
[30]
  Activity: Dose-dependent effect
[31]
  Vd: 0.4 L/kg
[32]
  Activity: Non-toxic
[33]
  Cmax: 7.5 µM
[34]
  Vd: 1.4 L/kg
[35]
  Vd: 1.6 L/kg
[36]
  Activity: Dose-dependent effect
[37]
  pIC50: 7.54
[38]
  Activity: Non-toxic
[39]
  Activity: Non-toxic
[40]
  Activity: Non-toxic
[41]
  pIC50: 4.85
[42]
  pIC50: < 4.30
[43]
  Papp A→B: 30.2 ×10⁻⁶ cm/s
[44]
  Activity: Dose-dependent effect
[45]
  Activity: Dose-dependent effect
[46]
  bioavailability: 98%
[47]
  Activity: Dose-dependent effect
[48]
  half-life: 3.4 h
[49]
  Activity: 77%
[50]
  Activity: Non-toxic
[51]
  Activity: Dose-dependent effect
